How the values were obtained:
Srebp-1c = assay: Western blot of Srebp-1c protein in Caco-2/HepG2 co-culture; assay type: cell-based, human; details: OA-induced co-culture, 50 μM, 24 h; compared vs. OA
Method: (§1) Cells from the co-culture model were lysed and supernatants were collected. The protein concentrations were determined using the BCA Protein Quantitation Kit. Then electrophoresis of samples was conducted using a SDS-PAGE kit (Beyotime Biotechnology) following the manufacturer’s instructions and transferred to poly-vinylidene difluoride (PVDF) membrane. Next, membranes were incubated in 5% nonfat milk to block non-specific antibody binding for 30 min at room temperature and followed by incubating with primary antibodies and secondary antibodies. Chemiluminescence based-images of the blots were acquired using ImageQuant LAS 500 system (GE, United States). Protein bands were quantified using ImageJ (version 1.53a) software. The changes in expression levels of these proteins detected finally are used to evaluate the sample’s effect on lipid metabolism.

HepG2 cells [1] = assay: MTT cell viability assay in HepG2 cells; assay type: cell-based, human; details: 24 h; for effect on cell viability: 50 μM; for cytotoxicity: 100 μM
Method: Cell culture: […] Subsequently, the supernatant was removed and 200 μL of MTT solution (0.1 mg/mL) was added to each well to incubate for an additional 4 h (200 μL for Caco-2 cells, 100 μL for HepG2 cells, both at a concentration of 0.1 mg/mL). Finally, formazan crystals were completely dissolved in DMSO in a shaker for 10 min and the absorbance was measured at a wavelength of 490 nm using a microplate absorbance reader (FLUOstar Omera, BMG Labtech, Germany). Cell viability was determined using the following equation: Cell viability (%) = (OD sample/OD control) × 100, where OD is the optical density. The absorbance values for drug fractions […], catechin, and […]-catechin) were compared to those of untreated culture (control). Each treatment was set up in triplicate.

Caco-2 cell monolayers = assay: Bidirectional transport across Caco-2 cell monolayer; assay type: in vitro ADME, human; details: for efflux rate (BL to AP side) / absorption rate (AP to BL side): 50 μM; for efflux rate (BL to AP side): up to 150 min; for absorption rate (AP to BL side): within 150 min; for ER (efflux rate) / Papp (AP → BL) / Papp (BL → AP): 50 μmol/L, no inhibitor; for transport mechanism into the small intestine: inferred from ER < 1 and inhibitor study
Method: The cells were seeded at a density of approximately 10^5 cells/cm^2 on TranswellTM filter (Corning Inc., Lowell, MA) and cultured for 21 d before use. Cell monolayer integrity was controlled by the measurement of trans-epithelial electrical resistance (TEER) with an EVOM epithelial voltammeter equipped with an electrode (World Precision Instruments, Sarasota, FL, United States). […] (a) R(%)=CBL×VBL/CAP×VAP×100 In this, R represents the absorption rate (as a percentage); CBL is the anthocyanin concentration of the BL side (in μM); VBL is the volume of anthocyanins from the BL (in L); CAP is the initial anthocyanin concentration of the AP side (in μM), and VAP is the volume of anthocyanins in the AP chamber (in L). The absorption rate of anthocyanins from BL to AP is calculated using the following Equation b: (b) R(%)=CAP×VAP/CBL×VBL×100 In this, R represents the absorption rate (as a percentage); CAP is the anthocyanin concentration from the AP side (in μM); VAP is the volume of anthocyanins in the AP chamber (in mL); CBL is the initial concentration from the BL side (in μM) and VBL is the volume of anthocyanins in the BL chamber (in L).

HepG2 cells [2] = assay: TG and TC content in OA-induced high-fat HepG2 cells; assay type: cell-based, human; details: OA-induced high-fat HepG2 cells, 50 μM, 24 h
Method: For high fat HepG2 model: […] Afterwards, cells were harvested and lysed. […] For TG and TC assay: […] The medium was removed and the cells were washed twice with PBS. The levels of triglycerides (TG) and total cholesterol (TC) in the cells were determined according to the instructions of test kits.

P-gp = P-gp (Homo sapiens, UniProt P08183); assay: Bidirectional Caco-2 transport with verapamil (P-gp inhibitor); details: for ER (efflux rate) / Papp (AP → BL) / Papp (BL → AP): 50 μmol/L, + Ver (verapamil 100 μM); for substrate of P-gp: bidirectional assay with verapamil 100 μM
Chain of P-gp (P08183 whole entry): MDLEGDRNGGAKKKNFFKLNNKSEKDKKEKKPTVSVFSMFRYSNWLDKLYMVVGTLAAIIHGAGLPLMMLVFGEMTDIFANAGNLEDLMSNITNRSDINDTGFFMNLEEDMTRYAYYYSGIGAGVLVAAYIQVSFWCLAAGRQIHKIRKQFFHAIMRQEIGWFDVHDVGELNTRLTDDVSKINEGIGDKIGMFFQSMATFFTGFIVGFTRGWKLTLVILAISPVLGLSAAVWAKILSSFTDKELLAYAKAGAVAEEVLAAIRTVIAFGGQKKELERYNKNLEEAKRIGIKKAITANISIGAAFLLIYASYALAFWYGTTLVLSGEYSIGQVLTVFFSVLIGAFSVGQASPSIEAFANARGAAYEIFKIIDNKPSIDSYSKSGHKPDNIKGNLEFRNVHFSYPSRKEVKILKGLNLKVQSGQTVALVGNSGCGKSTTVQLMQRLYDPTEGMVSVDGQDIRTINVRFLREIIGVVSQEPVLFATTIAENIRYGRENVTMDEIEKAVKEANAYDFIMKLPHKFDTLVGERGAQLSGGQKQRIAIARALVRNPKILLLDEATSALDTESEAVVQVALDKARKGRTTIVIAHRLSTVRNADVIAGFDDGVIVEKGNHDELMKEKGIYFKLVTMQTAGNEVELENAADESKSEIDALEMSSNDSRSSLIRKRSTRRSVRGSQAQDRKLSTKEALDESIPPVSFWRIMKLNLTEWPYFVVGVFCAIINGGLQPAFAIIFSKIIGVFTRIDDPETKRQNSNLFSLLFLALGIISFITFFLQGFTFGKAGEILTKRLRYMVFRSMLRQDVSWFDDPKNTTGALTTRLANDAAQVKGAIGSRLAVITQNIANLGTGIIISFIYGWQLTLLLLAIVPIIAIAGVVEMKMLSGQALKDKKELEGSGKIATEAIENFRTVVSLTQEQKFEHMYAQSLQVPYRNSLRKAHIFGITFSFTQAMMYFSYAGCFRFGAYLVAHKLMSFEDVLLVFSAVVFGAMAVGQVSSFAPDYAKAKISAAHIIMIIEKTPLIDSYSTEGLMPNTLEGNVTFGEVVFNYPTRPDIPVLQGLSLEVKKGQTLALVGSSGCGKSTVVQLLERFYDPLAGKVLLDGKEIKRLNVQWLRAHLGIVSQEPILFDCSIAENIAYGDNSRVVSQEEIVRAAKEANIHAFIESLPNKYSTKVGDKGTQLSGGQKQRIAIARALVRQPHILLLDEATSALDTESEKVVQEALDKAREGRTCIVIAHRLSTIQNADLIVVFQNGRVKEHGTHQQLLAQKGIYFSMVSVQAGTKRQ
Method: Transport assay: The monolayers were pre-incubated at 37°C for 30–40 min with 5% CO2 in a pre-warmed media, which contained Hanks Balanced Salt solution (HBSS, BioWhittaker), HEPES buffer and D-glucose. For the transport of apical (AP) side to basolateral (BL) side, the media was removed after pre-incubation and 0.5 mL of polyphenols was added to the AP side. 1.5 mL of HBSS were added to the BL side. Then 200 μL of samples were taken from the BL side at 30, 60, 90, 120 and 150 min, respectively. The BA sample volumes removed were therewith replenished with same volumes of the HBSS solution. For the transport of BL to AP, polyphenols were added to BL and samples were taken from AP at a series of time points as above mentioned. The TEER was measured from the beginning to the end of the assay.
Caco-2 cells (1×10^5 cells/well) were cultured in 96-well plates for 24 h until differentiation, with a TEER value exceeding 400 Ω·cm^2. Bidirectional transport experiments from AP to BL or from BL to AP were performed as mentioned in the transport assay. The apparent permeability coefficients, cumulative release and initial concentrations and efflux rates were determined. In brief, the total transport time was set to 150 min. For AP to BL transport, 0.5 mL of polyphenols were added to AP with 1.5 mL of HBSS to the BL side. 200 μL of samples were collected from BL at different time points (30, 60, 90, 120, and 150 min). For BL to AP transport, polyphenols were added to BL and samples were collected from AP as the mentioned above.

Plin1 = assay: Western blot of Plin1 protein in Caco-2/HepG2 co-culture; assay type: cell-based, human; details: OA-induced co-culture, 50 μM, 24 h; compared vs. OA
Method: as §1

Fabp4 = assay: Western blot of Fabp4 protein in Caco-2/HepG2 co-culture; assay type: cell-based, human; details: OA-induced co-culture, 50 μM, 24 h; compared vs. OA
Method: as §1

HepG2 cells [3] = assay: Oil Red O lipid content in OA-induced high-fat HepG2 cells; details: 1 mM OA-induced HepG2 cells, 50 μM, 24 h
Method: For the lipid content assay: The cells were treated with 1 mM oleic acid (OA). […] The absorbance value was recorded at 530 nm using a microplate absorbance reader. Isopropanol solvent was used as a control ([14]).

Fasn = assay: Western blot of Fasn protein in Caco-2/HepG2 co-culture; assay type: cell-based, human; details: OA-induced co-culture, 50 μM, 24 h; compared vs. OA
Method: as §1

SMILES: OC[C@H]1O[C@@H](Oc2cc3c(O)cc(O)cc3[o+]c2-c2ccc(O)c(O)c2)[C@H](O)[C@@H](O)[C@@H]1O [C3G, Cyanidin-3-O-glucoside]
- Srebp-1c protein expression level (densitometry) (Srebp-1c): 1.32
- effect on cell viability (HepG2 cells [1]): no significant effects
- cytotoxicity (HepG2 cells [1]): comparable cytotoxicity
- efflux rate (BL to AP side) (Caco-2 cell monolayers): 15.41%
- absorption rate (AP to BL side) (Caco-2 cell monolayers): 22.47%
- ER (efflux rate) (Caco-2 cell monolayers; 30 min): 0.49
- Papp (AP → BL) (Caco-2 cell monolayers; 30 min): 3.9 ± 1.32^Aa* ×10^−5 cm /s
- Papp (BL → AP) (Caco-2 cell monolayers; 30 min): 1.8 ± 0.14^Ba ×10^−5 cm /s
- ER (efflux rate) (Caco-2 cell monolayers; 60 min): 0.56
- Papp (AP → BL) (Caco-2 cell monolayers; 60 min): 1.8 ± 0.07^Cb* ×10^−5 cm /s
- Papp (BL → AP) (Caco-2 cell monolayers; 60 min): 1.0 ± 0.17^Bb ×10^−5 cm /s
- ER (efflux rate) (Caco-2 cell monolayers; 90 min): 0.53
- Papp (AP → BL) (Caco-2 cell monolayers; 90 min): 1.1 ± 0.02^Cb* ×10^−5 cm /s
- Papp (BL → AP) (Caco-2 cell monolayers; 90 min): 0.6 ± 0.04^Cc ×10^−5 cm /s
- ER (efflux rate) (Caco-2 cell monolayers; 120 min): 0.57
- Papp (AP → BL) (Caco-2 cell monolayers; 120 min): 0.9 ± 0.03^Cb* ×10^−5 cm /s
- Papp (BL → AP) (Caco-2 cell monolayers; 120 min): 0.5 ± 0.08^Ccd ×10^−5 cm /s
- ER (efflux rate) (Caco-2 cell monolayers; 150 min): 0.54
- Papp (AP → BL) (Caco-2 cell monolayers; 150 min): 0.7 ± 0.03^Bb* ×10^−5 cm /s
- Papp (BL → AP) (Caco-2 cell monolayers; 150 min): 0.4 ± 0.04^Cde ×10^−5 cm /s
- transport mechanism into the small intestine (Caco-2 cell monolayers): passive diffusion
- reduction of TG content (HepG2 cells [2]): 21%
- ER (efflux rate) (P-gp; 30 min): 0.48
- Papp (AP → BL) (P-gp; 30 min): 11.4 ± 0.49 ×10^−5 cm /s
- Papp (BL → AP) (P-gp; 30 min): 5.49 ± 0.66 ×10^−5 cm /s
- ER (efflux rate) (P-gp; 60 min): 0.54
- Papp (AP → BL) (P-gp; 60 min): 5.73 ± 0.21 ×10^−5 cm /s
- Papp (BL → AP) (P-gp; 60 min): 3.07 ± 0.2 ×10^−5 cm /s
- ER (efflux rate) (P-gp; 90 min): 0.51
- Papp (AP → BL) (P-gp; 90 min): 4.05 ± 0.12 ×10^−5 cm /s
- Papp (BL → AP) (P-gp; 90 min): 2.09 ± 0.03 ×10^−5 cm /s
- ER (efflux rate) (P-gp; 120 min): 0.54
- Papp (AP → BL) (P-gp; 120 min): 3.16 ± 0.17 ×10^−5 cm /s
- Papp (BL → AP) (P-gp; 120 min): 1.71 ± 0.15 ×10^−5 cm /s
- ER (efflux rate) (P-gp; 150 min): 0.51
- Papp (AP → BL) (P-gp; 150 min): 2.47 ± 0.14 ×10^−5 cm /s
- Papp (BL → AP) (P-gp; 150 min): 1.21 ± 0.28 ×10^−5 cm /s
- substrate of P-gp (P-gp): not substrates
- Plin1 protein expression level (densitometry) (Plin1): 1.12
- Fabp4 protein expression level (densitometry) (Fabp4): 1.23
- decrease of lipid absorption rate (Oil Red O lipid droplets) (HepG2 cells [3]): 22.35%

SMILES: O.Oc1cc(O)c2c(c1)O[C@H](c1ccc(O)c(O)c1)[C@@H](O)C2 [catechin]
- Fasn protein expression level (densitometry) (Fasn): 1.11
- effect on cell viability (HepG2 cells [1]): no significant effects
- cytotoxicity (HepG2 cells [1]): comparable cytotoxicity
- efflux rate (BL to AP side) (Caco-2 cell monolayers): 68.71%
- absorption rate (AP to BL side) (Caco-2 cell monolayers): 73.41%
- ER (efflux rate) (Caco-2 cell monolayers; 30 min): 0.77
- Papp (AP → BL) (Caco-2 cell monolayers; 30 min): 7.9 ± 0.26^Ba ×10^−5 cm /s
- Papp (BL → AP) (Caco-2 cell monolayers; 30 min): 6.1 ± 2.78^Aa ×10^−5 cm /s
- ER (efflux rate) (Caco-2 cell monolayers; 60 min): 0.55
- Papp (AP → BL) (Caco-2 cell monolayers; 60 min): 4.6 ± 0.43^Ab* ×10^−5 cm /s
- Papp (BL → AP) (Caco-2 cell monolayers; 60 min): 2.5 ± 0.28^Ab ×10^−5 cm /s
- ER (efflux rate) (Caco-2 cell monolayers; 90 min): 0.52
- Papp (BL → AP) (Caco-2 cell monolayers; 90 min): 1.6 ± 0.11^Ab ×10^−5 cm /s
- ER (efflux rate) (Caco-2 cell monolayers; 120 min): 0.51
- Papp (AP → BL) (Caco-2 cell monolayers; 120 min): 2.5 ± 0.19^Ad* ×10^−5 cm /s
- Papp (BL → AP) (Caco-2 cell monolayers; 120 min): 1.31 ± 0.13^Ab ×10^−5 cm /s
- ER (efflux rate) (Caco-2 cell monolayers; 150 min): 0.48
- Papp (AP → BL) (Caco-2 cell monolayers; 150 min): 2.2 ± 0.52^Ad* ×10^−5 cm /s
- Papp (BL → AP) (Caco-2 cell monolayers; 150 min): 1.0 ± 0.03^Ab ×10^−5 cm /s
- transport mechanism into the small intestine (Caco-2 cell monolayers): passive diffusion
- ER (efflux rate) (P-gp; 30 min): 0.57
- Papp (AP → BL) (P-gp; 30 min): 11.2 ± 0.23 ×10^−5 cm /s
- Papp (BL → AP) (P-gp; 30 min): 6.38 ± 0.37 ×10^−5 cm /s
- ER (efflux rate) (P-gp; 60 min): 0.57
- Papp (AP → BL) (P-gp; 60 min): 6.02 ± 0.37 ×10^−5 cm /s
- Papp (BL → AP) (P-gp; 60 min): 3.45 ± 0.29 ×10^−5 cm /s
- ER (efflux rate) (P-gp; 90 min): 0.51
- Papp (AP → BL) (P-gp; 90 min): 3.98 ± 0.31 ×10^−5 cm /s
- Papp (BL → AP) (P-gp; 90 min): 2.05 ± 0.56 ×10^−5 cm /s
- ER (efflux rate) (P-gp; 120 min): 0.52
- Papp (AP → BL) (P-gp; 120 min): 3.25 ± 0.52 ×10^−5 cm /s
- Papp (BL → AP) (P-gp; 120 min): 1.68 ± 0.29 ×10^−5 cm /s
- ER (efflux rate) (P-gp; 150 min): 0.52
- Papp (AP → BL) (P-gp; 150 min): 2.54 ± 0.17 ×10^−5 cm /s
- Papp (BL → AP) (P-gp; 150 min): 1.32 ± 0.34 ×10^−5 cm /s
- substrate of P-gp (P-gp): not substrates
- Plin1 protein expression level (densitometry) (Plin1): 1.14
- Fabp4 protein expression level (densitometry) (Fabp4): 1.23
- decrease of lipid absorption rate (Oil Red O lipid droplets) (HepG2 cells [3]): 31.24%
